Reference: patent US20220152031A1, “PYRIDAZINONES AND METHODS OF USE THEREOF” (Goldfinch Bio, Inc., priority 2019, published 2022)
Like-named read-outs stand apart in the source and are kept apart here.

Target: T1, TRPC4 (Homo sapiens, UniProt Q9UBN4)
T1 construct: expressed in transfected cells
T1 sequence (Q9UBN4 1-982 isoform Q9UBN4-5): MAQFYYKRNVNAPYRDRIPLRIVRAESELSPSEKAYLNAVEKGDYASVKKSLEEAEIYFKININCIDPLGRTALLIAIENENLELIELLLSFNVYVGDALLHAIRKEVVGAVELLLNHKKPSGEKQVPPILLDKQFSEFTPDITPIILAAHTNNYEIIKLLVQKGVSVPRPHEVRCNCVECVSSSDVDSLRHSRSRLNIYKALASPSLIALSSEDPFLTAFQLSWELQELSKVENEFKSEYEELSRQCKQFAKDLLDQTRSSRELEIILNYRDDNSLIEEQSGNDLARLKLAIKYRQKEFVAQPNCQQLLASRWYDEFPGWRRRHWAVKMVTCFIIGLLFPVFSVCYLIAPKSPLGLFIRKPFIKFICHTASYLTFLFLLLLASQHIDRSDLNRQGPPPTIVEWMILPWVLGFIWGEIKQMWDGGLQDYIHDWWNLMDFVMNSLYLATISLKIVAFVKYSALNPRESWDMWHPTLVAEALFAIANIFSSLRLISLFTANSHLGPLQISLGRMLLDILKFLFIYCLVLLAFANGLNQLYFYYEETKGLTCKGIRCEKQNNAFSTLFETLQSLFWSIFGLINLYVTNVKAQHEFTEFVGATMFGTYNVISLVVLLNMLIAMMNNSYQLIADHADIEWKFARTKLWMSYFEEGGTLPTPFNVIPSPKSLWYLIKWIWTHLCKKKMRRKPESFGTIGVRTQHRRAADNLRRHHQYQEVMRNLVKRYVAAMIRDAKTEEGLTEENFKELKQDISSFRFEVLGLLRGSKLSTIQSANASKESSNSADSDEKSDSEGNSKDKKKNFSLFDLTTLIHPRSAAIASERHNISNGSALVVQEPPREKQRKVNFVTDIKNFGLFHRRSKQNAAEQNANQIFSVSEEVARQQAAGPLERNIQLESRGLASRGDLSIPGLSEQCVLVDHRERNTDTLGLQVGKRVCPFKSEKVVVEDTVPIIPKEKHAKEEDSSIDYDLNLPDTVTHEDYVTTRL
Assay: TRPC4 activity assay (FLIPR calcium fluorescence, HEK-TREx hTRPC4 cells)
Type: cell-based
Procedure: ICLN-1694 cells (HEK-TREx hTRPC4) expressing TRPC4 were generated as follows. Commercially available HekTrex-293 cells were seeded at 0.7×10^6 cells/well in a 1×6-well plate 24 hrs prior to transfection using 2 mL cell growth media containing no antibiotics (lx DMEM/high glucose (Hyclone #SH30022.02); 10% fetal bovine serum (Sigma) 2 mM sodium pyruvate, 10 mM HEPES). […] On day 2, 2 μg of plasmid DNA plus 6 μl of Xtreme-GENE HP reagent in Optimem (200 μl total volume) was prepared and incubated for 15 min at room temperature. This plasmid solution was then gently overlayed dropwise onto each well and the plate was gently swirled to mix complex with the media for approximately 30 seconds. Transfected cells were incubated at 37° C. in a 10% CO2 incubator for 24 hrs. The transfected cells were harvested and transferred into 2×150 mm dishes containing cell growth media with no antibiotics at 37° C.
The next day selection was initiated to generate a stable pool by adding cell growth media containing 150 μg/mL Hygromycin and 5 μg/mL Blasticidin and cells were allowed to grow. Media with the selection agent was changed every 1-2 days as needed to remove dead cells. After 7 days, the hygromycin concentration was reduced to 75 μg/mL and cells growth was allowed to continue.
Single clones were selected as follows. The stable pool was diluted to 10 cells/mL and seeded (100 μl/well) into 24×96 well plates (˜1 cell/well) and allowed to grow for 7 days in cell growth media. Fresh media (100 μl) was added and the cells allowed to grow for another 1-2 weeks and then stored frozen or used immediately.
10-point dose response curves were generated using the Echo-550 acoustic dispenser. Compound source plates were made by serially diluting compound stocks to create 10 mM, 1 mM, and 0.1 mM solutions in DMSO into Echo-certified LDV plates. The Echo then serially spotted 100% DMSO stock solutions into source dose response plates to generate a 4-fold dilution scheme. 100% DMSO was added to the spotted dose response plates to bring the final volume to 5 μl. 300 nl of the dose response stock plate was then spotted into pre-incubation and stimulation assay plates. 50 μl of pre-incubation buffer and 100 μl of stimulation buffer was then added to the plates resulting in a final assay test concentration range of 30 μM to 0.0001 μM with a final DMSO concentration of 0.3%.
ICLN-1694 cells (HEK-TREx hTRPC4) were plated onto 384 well, black pdl-coated microplates and maintained in cell growth media supplemented with 1 μg/mL tetracycline the day prior to use for experiments. TRPC4 expression was induced by the application of 1 μg/mL tetracycline at the time of plating. […] Cells were incubated at room temperature, protected from light, for 60-90 minutes. After the incubation period, the dye was removed and replaced with 10 μl of EBSS. Cell, pre-incubation and stimulation plates were loaded onto the FLIPR-II and the assay was initiated. The FLIPR measured a 10 second baseline and then added 10 μl of 2× compounds (or controls). Changes in fluorescence were monitored for an additional 5 minutes. After a 5 minute pre-incubation, 20 μl of 2× Englerin A (with 1× compound or controls) was added to the cell plate. The final Engerlin A stimulation concentration in the assay was 100 nM. After the Englerin A addition, changes in fluorescence were monitored for an additional 5 minutes.
Compound modulation of TRPC4 calcium response was determined as follows. After the Englerin A, fluorescence was monitored for a 5-minute period. The maximum relative fluorescence response (minus the control response of 1 μM of an internal control compound known to maximally block TRPC4 calcium response, the “REF INHIB” in the formula below) was captured and exported from the FLIPR.
Compound effect is calculated as % inhibition using the following formula: […]
wherein “RFU” is the relative fluorescent units.

[1] = Table 6, HEK-TREx hTRPC4, read-out: hTRPC4-FLIPR IC50
[2] = Table 5, HEK-TREx hTRPC4, read-out: TRPC4 FLIPR IC50
[3] = Table 7, HEK-TREx hTRPC4, read-out: TRPC4-FLIPR IC50

Compound | IC50 [1] [nM] | IC50 [2] [nM] | IC50 [3] [nM]
CC(c1ccc(F)cc1C(F)(F)F)N1CCN(c2cn[nH]c(=O)c2Cl)CC1=O (single isomer, unassigned) [MF] | 0.01 to 1000 | – | –
O=C1CN(c2cn[nH]c(=O)c2Cl)CCN1Cc1ccccc1C(F)(F)F [AO] | – | 0.01 to 1000 | –
CCc1ncccc1N(CC)C1CCN(c2cn[nH]c(=O)c2Cl)CC1 [LW, 4-chloro-5-[4-[ethyl(2-ethylpyridin-3-yl)amino]piperidin-1-yl]-2,3-dihydropyridazin-3-one] | 0.01 to 1000 | 0.01 to 1000 | –
CCc1ncccc1[C@H](C)N1CCN(c2cn[nH]c(=O)c2Cl)CC1 [LY, 4-chloro-5-[4-[(1S)-1-(2-ethylpyridin-3-yl)ethyl]piperazin-1-yl]-2,3-dihydropyridazin-3-one] | 0.01 to 1000 | 0.01 to 1000 | –
C[C@@H]1Cc2c(nnn2[C@H](C)c2ccccc2C(F)(F)F)CN1c1cn[nH]c(=O)c1Cl [MX, 4-chloro-5-[(6R)-6-methyl-1-[(1R)-1-[2-(trifluoromethyl)phenyl]ethyl]-1H,4H,5H,6H,7H-[1,2,3]triazolo[4,5-c]pyridin-5-yl]-2,3-dihydropyridazin-3-one] | – | 0.01 to 1000 | 0.01 to 1000
CN1CCN(C(=O)c2nn(Cc3ccccc3C(F)F)c3c2CN(c2cn[nH]c(=O)c2Cl)CC3)CC1 [OM] | – | – | 0.01 to 1000
NC(=O)c1nn(Cc2ccccc2C(F)(F)F)c2c1CN(c1cn[nH]c(=O)c1Cl)CC2 [OP, 5-(5-Chloro-6-oxo-1,6-dihydropyridazin-4-yl)-1-[[2-(trifluoromethyl)phenyl]methyl]-1H,4H,5H,6H,7H-pyrazolo[4,3-c]pyridine-3-carboxamide] | – | 0.01 to 1000 | 0.01 to 1000
CN1CCN(Cc2nn(Cc3ccccc3C(F)F)c3c2CN(c2cn[nH]c(=O)c2Cl)CC3)CC1 [OU, 4-Chloro-5-(1-[[2-(difluoromethyl)phenyl]methyl]-3-[(4-methylpiperazin-1-yl)methyl]-1H,4H,5H,6H,7H-pyrazolo[4,3-c]pyridin-5-yl)-2,3-dihydropyridazin-3-one] | – | – | 0.01 to 1000
CN(C)C(=O)c1nc2c(n1Cc1ccccc1C(F)(F)F)CCN(c1cn[nH]c(=O)c1Cl)C2 [PW] | – | 0.01 to 1000 | 0.01 to 1000
CN(c1ncc2c(n1)CN(c1cn[nH]c(=O)c1Cl)C2)c1ccccc1C(F)(F)F [QM] | – | 0.01 to 1000 | 0.01 to 1000
